pIC50: −log10 of the molar value. Where only a bound is given, the exact number is not on record here.

For the first assay, the system named is Human Jurkat T-cells (clone N). In words: Jurkat T-cell activation (anti-TCR, CD69 upregulation). The assay is classed as cell-based.
Conditions: not given
Here is the method:
The screening process took place over three days.
On the first day of the screen, cultured cells were spun down on a centrifuge (1000 rpm, 5 minutes) and resuspended at 3.0×10^5 cells/ml in RPMI+5% FBS. On the second day of the screen, cells were spun down at 1000 rpm for 5 minutes and resuspended in RPMI+5% FBS at 1.3×10^5 cells/ml. 85 μl of this cell suspension were added to the wells of U-bottom 96 well plates (Corning) 85 μl of compound or diluted RPMI+5% FBS (as a control) only was added to each well and incubated at 37° C. for 1 hour. The cells were then stimulated with anti-TCR (C305) at: 500 ng/ml by adding a 8× solution in 25 μl to the plated cells. The cells were then incubated at 37° C. for 20 hrs.
On the third day of the screen, the plates were spun at 2500 RPM for 1 minute on a Beckman GS-6R centrifuge, and the medium was then removed. 50 μl staining solution (1:100 dilution of anti-CD69-APC antibody (Becton Dickenson) in PBS+2% FBS) was then added to each well, followed by incubation of the plates 4 degrees for 20 minutes in the dark. 150 μl of wash buffer (PBS+2% FBS) was then added to each well, and the plates were spun at 3000 RPM for 1 minute. The supernatant was again removed, and the pellet was resuspended by vortexing gently. 75 μl of PBS+2% FBS +Cytofix (1:4 dilution) was then added, the plates gently vortexed and wrap in aluminum foil. Cells from the plates were read using a flow cytometer coupled to an automated liquid handling system.
Varied concentrations of compound were compared to solvent only to determine the inhibition of T-cell activation IC50 of each compound.
By pIC50 is commonly meant −log10 of the IC50, conventionally taken in molar units. On to `CNC(=O)c1cc2cccc(Nc3ncc(F)c(Nc4ccc5c(c4)OCCO5)n3)c2[nH]1` [Compound R926815], for which the pIC50 is < 5.00.
In the case of `CCCNC(=O)COc1ccc(Nc2ncc(C#N)c(Nc3ccc(OCC(=O)NCCC)cc3)n2)cc1` [Compound R925853], the pIC50 is < 5.00.
For the compound `Cc1cc(Nc2nc(Nc3cccc(OCCN4CCNCC4)c3)ncc2F)cc(Cl)c1O` [Compound R945150], the negative logarithm of the IC50 (pIC50) was 5.95.
Consider `CNC(=O)C(C)(C)Oc1cccc(Nc2ncc(F)c(Nc3cccc(O)c3)n2)c1` [Compound R926913], for which the negative-log IC50 (pIC50) is 5.25.
The compound `CC(C)c1cccc(Nc2nc(Nc3ccc4oc(CO)cc4c3)ncc2F)c1` [Compound R940286] showed a negative logarithm of the IC50 (pIC50) of 5.36. The pIC50 values of the last two compounds are within 0.2 log units of each other.
Still for that read-out and setting: the figure for `Oc1cccc(Nc2nc(Nc3ccc4[nH]ncc4c3)ncc2F)c1` [Compound R935199] is 5.60; for `CCOC(=O)C1CCN(C(=O)c2cccc(Nc3nc(Nc4cccc(OCC(=O)NC)c4)ncc3F)c2)CC1` [Compound R926941] it is < 5.00; for `COc1cc(Nc2nc(Nc3cccc(O)c3)ncc2F)c(OC)cc1Cl` [Compound R926860] it is < 5.00.
The compound `O=C1OCc2ccc(Nc3ncc(F)c(Nc4ccc5c(c4)OCCO5)n3)cc21` [Compound R926786] gave a pIC50 of 5.13.
Regarding `Oc1cccc(Nc2nc(Nc3ccc4oc(CN5CCNCC5)cc4c3)ncc2F)c1` [Compound R926769], the negative logarithm of the IC50 (pIC50) was 5.55.
Still for that read-out and setting: the figure for `CNC(=O)COc1cccc(Nc2ncc(F)c(Nc3cccc(Cl)c3)n2)c1` [Compound R926832] is 5.52; for `CNC(=O)COc1cccc(Nc2ncc(F)c(Nc3ccc4c(c3)N(c3ccccn3)CC(C)(C)O4)n2)c1` [Compound R940337] it is 5.74; for `CNC(=O)COc1cccc(Nc2ncc(F)c(Nc3ccc4c(c3)C(=NOC)CCO4)n2)c1` [Compound R950356] it is 5.24.
In the case of `CCOC(=O)COc1cccc(Nc2nc(Nc3cc(OC)cc(OC)c3)ncc2F)c1` [Compound R926804], the pIC50 is < 5.00.
The compound `CON=C(N)COc1ccc(Nc2nc(Nc3ccc4c(c3)OCCO4)ncc2F)cc1` [Compound R945175] had a negative logarithm of the IC50 (pIC50) of 5.42.
On the same count and under the same terms, the figure for `C=CCNC(=O)Oc1cccc(Nc2nc(Nc3cccc(OCC(=O)NC)c3)ncc2F)c1` [Compound R926917] is 5.32; for `CCOC(=O)CNC(=O)Oc1cccc(Nc2nc(Nc3cccc(OCC(=O)NC)c3)ncc2F)c1` [Compound R926918] it is 5.33; for `CNC(=O)COc1cccc(Nc2ncc(F)c(Nc3ccc(OC)c(F)c3)n2)c1` [Compound R926892] it is 5.79.
For `CNC(=O)COc1cccc(Nc2ncc(F)c(Nc3ccc(C(C)(C)C)cc3)n2)c1` [Compound R926714], the pIC50 is 5.25.
Still for that read-out and setting: in the case of `COc1ccc([C@@H](C)Nc2ncc(Br)c(N[C@H](C)c3ccc(OC)cc3)n2)cc1` [Compound R935016] it was 5.27; in that of `CNC(=O)COc1cccc(Nc2ncc(F)c(Nc3ccc(OC)c(O)c3)n2)c1` [Compound R926834], 5.59; in that of `CCOC(=O)COc1ccc(Nc2ncc(Br)c(Nc3cccc(O)c3)n2)cc1` [Compound R926396], 5.18.
Take `O=C(COc1cccc(Nc2ncc(F)c(Nc3cccc(O)c3)n2)c1)NCCO` [Compound R926506]: the negative-log IC50 (pIC50) was 5.57. This pIC50 lies 0.39 log units higher than the previous one.
On to `N#Cc1cnc(Nc2ccc(OCC(=O)N3CCCCC3)cc2)nc1Nc1ccc(OCC(=O)N2CCCCC2)cc1` [Compound R925855], for which the pIC50 is < 5.00.
On to `CCOC(=O)COc1cccc(Nc2ncc(C(=O)OCC)c(Nc3ccc4c(c3)OC(F)(F)C(F)(F)O4)n2)c1` [Compound R926799], for which the negative-log IC50 (pIC50) is < 5.00.
Turning to `CC(C)(C)c1cccc(Nc2nc(Nc3ccc4oc(CO)cc4c3)ncc2F)c1` [Compound R940287], the pIC50 was 5.21.
The same measure, in the same setting: the figure for `CCOc1ccc(Nc2ncc([N+](=O)[O-])c(Nc3ccc(OCC)cc3)n2)cc1` [Compound R940090] is < 5.00; for `CNC(=O)COc1cccc(Nc2ncc(F)c(Nc3cc(OC)cc(OC)c3)n2)c1` [Compound R926796] it is 5.38; for `CC(C)Oc1ccc(Nc2nc(Nc3ccc4[nH]ncc4c3)ncc2F)cc1` [Compound R935197] it is 5.61.
Compound `CNC(=O)COc1cccc(Nc2ncc(F)c(Nc3cccc(OC)c3)n2)c1` [Compound R926738] had a negative logarithm of the IC50 (pIC50) of 5.65.
`Cc1nc(COc2cccc(Nc3ncc(F)c(Nc4ccc(OC(C)C)cc4)n3)c2)no1` [Compound R945129] showed a pIC50 of 5.22.
As to `COC(=O)COc1cccc(Nc2ncc(F)c(Nc3ccc4c(c3)C(OC)CCO4)n2)c1` (stereo not drawn) [Compound R950295], the negative logarithm of the IC50 (pIC50) is 5.33. The pIC50 values of the last two compounds are within 0.2 log units of each other.
Compound `CCOC(=O)COc1ccc(Nc2ncc(-c3nn[nH]n3)c(Nc3ccc(OCC(=O)OCC)cc3)n2)cc1` [Compound R925810] showed a negative-log IC50 (pIC50) of 4.67.
Turning to `CCOC1CCOc2ccc(Nc3nc(Nc4cccc(OCC(=O)NC)c4)ncc3F)cc21` (stereo not drawn) [Compound R950296], the pIC50 is 5.71. Against the preceding compound, the pIC50 is 1.04 log units higher.
The same measure, in the same setting: the figure for `CNC(=O)COc1cccc(Nc2ncc(F)c(Nc3ccc(OCCC(=O)O)cc3)n2)c1` [Compound R950344] is < 5.00.
`CCOC(=O)c1cnc(Nc2ccc3c(c2)NC(=O)CO3)nc1Nc1ccc2c(c1)NC(=O)CO2` [Compound R926325]: the pIC50 is < 5.00.
Regarding `Fc1cnc(Nc2cccc(NCCOCc3ccccc3)c2)nc1Nc1cccc(NCCOCc2ccccc2)c1` [Compound R950174], the negative logarithm of the IC50 (pIC50) is < 5.00.
`CC(=O)N(C(C)=O)c1cccc(N(C(C)=O)c2ncc(F)c(N(C(C)=O)c3cccc(N(C(C)=O)C(C)=O)c3)n2)c1` [Compound R950247]: the pIC50 is < 5.00.
`CNC(=O)COc1cccc(Nc2nc(Nc3ccc4c(c3)NCCO4)ncc2F)c1` [Compound R909247] showed a pIC50 of 5.52.
Take `CCOC(=O)c1cnc(Nc2cccc(OCC(=O)NC)c2)nc1Nc1cc(OC)cc(OC)c1` [Compound R926801]: the pIC50 is < 5.00.
Same read-out and setting: in the case of `NC(=O)COc1ccc(Nc2ncc(F)c(Nc3cccc(O)c3)n2)cc1` [Compound R945064] it was 5.33.
As to `COc1c(C)cc(Nc2nc(Nc3cccc(OCC(=O)N4CCNCC4)c3)ncc2F)cc1C` [Compound R945156], the pIC50 was 5.64.

Staying with this assay, now noted: Homo sapiens.
With `Cc1ccc(Nc2ncc(F)c(Nc3ccc(C)c([N+](=O)[O-])c3)n2)cc1[N+](=O)[O-]` [Compound R950144], the pIC50 was < 5.00.

The assay is the same for the next values; noted with them: Homo sapiens, Jurkat.
Consider `c1ccc(-c2cnc(Nc3ccc4c(c3)OCCO4)nc2Nc2ccc3c(c2)OCCO3)cc1` [Compound R925784], for which the pIC50 is < 5.00.
As to `c1ccc(-c2ccccc2Nc2ccnc(Nc3ccccc3-c3ccccc3)n2)cc1` [Compound R925804], the negative-log IC50 (pIC50) was < 5.00.
On to `Oc1cccc(Nc2ncc(F)c(Nc3cccc(C4=NN(c5ccccc5)CO4)c3)n2)c1` [Compound R926866], for which the negative logarithm of the IC50 (pIC50) was < 5.00.
Regarding `CN(C)CCOc1cccc(Nc2ncc(F)c(Nc3ccc4c(c3)OCCO4)n2)c1` [Compound R926771], the negative logarithm of the IC50 (pIC50) is 5.46.
Consider `Brc1cnc(Nc2cccc(-c3ccccc3)c2)nc1Nc1cccc(-c2ccccc2)c1` [Compound R925803], for which the pIC50 is < 5.00.
With `O=[N+]([O-])c1cnc(Nc2ccc3c(c2)OC(F)(F)O3)nc1Nc1ccc2c(c1)OC(F)(F)O2` [Compound R940100], the pIC50 was < 5.00.
Compound `Cc1ccc(Nc2ncc(F)c(Nc3ccc(C)c(N)c3)n2)cc1N` [Compound R950129] gave a pIC50 of 5.16.
In the case of `Fc1ccc(Nc2ncc(F)c(Nc3ccc(F)cc3)n2)cc1` [Compound R926224], the negative-log IC50 (pIC50) is < 5.00.
`Fc1cnc(NCCCN2CCN(Cc3c(F)cccc3Cl)CC2)nc1Nc1ccc2c(c1)OCCO2` [Compound R926717]: the negative-log IC50 (pIC50) was 5.43.
`CC(=O)c1cccc(Nc2ncc(F)c(Nc3cccc(C(C)=O)c3)n2)c1` [Compound R950376] gave a negative logarithm of the IC50 (pIC50) of 4.74.
`OCCOc1cccc(Nc2ncc(F)c(Nc3ccc4oc(CO)cc4c3)n2)c1` [Compound R935178] showed a negative-log IC50 (pIC50) of 5.52.
`CCOC(=O)c1cccc(Nc2ncc(F)c(Nc3cccc(C(=O)OCC)c3)n2)c1` [Compound R926228]: the pIC50 is < 5.00.
As to `Fc1cnc(NCc2ccc3c(c2)CCO3)nc1Nc1ccc2c(c1)OCCO2` [Compound R950205], the pIC50 is 4.61.
On the same count and under the same terms, in the case of `O=S(=O)(c1ccc(Nc2ncc(F)c(Nc3ccc4c(c3)OCCO4)n2)cc1)N1CCCC1` [Compound R926716] it was 5.44; in that of `CCOc1ccc(Nc2cc(Cl)nc(Nc3ccc(OCC)cc3)n2)cc1` [Compound R926072], < 5.00.
Same read-out and setting: in the case of `Oc1ccc(Nc2ncc(F)c(Nc3ccc(O)c(F)c3)n2)cc1F` [Compound R926681] it was 5.70; in that of `CCc1ccc(Nc2ncc(F)c(Nc3ccc(CC)cc3)n2)cc1` [Compound R926234], < 5.00; in that of `Fc1cnc(Nc2cccnc2)nc1Nc1ccc2c(c1)OCCO2` [Compound R920668], < 5.00.
Compound `Clc1cc(Nc2ccc3c(c2)OCCO3)nc(Nc2ccc3c(c2)OCCO3)n1` [Compound R926245] gave a pIC50 of 4.96.
As for `Clc1ccc(-c2cnc(Nc3ccc4c(c3)OCCO4)nc2Nc2ccc3c(c2)OCCO3)cc1` [Compound R925786], the pIC50 is < 5.00.

Source of the values: US8158621B2, “Methods of treating or preventing autoimmune diseases with 2,4-pyrimidinediamine compounds” (Rigel Pharmaceuticals, Inc., priority 2002, dated 2012).
